Measured values as given in patent US12343428B2, “Compositions and methods for cancer treatment” (University of Virginia Patent Foundation, priority 2017, dated 2025).

Legend:
[1] = system: LNCaP and C4-2 cells; test: Synergy studies of CNL with abiraterone acetate or enzalutamide (MTS, isobolograms); type: cell-based, human; settings: two AR positive cell lines; drug alone
Protocol: Viability was assayed using MTS assay (Promega […] 96® AQueous Non-Radioactive Cell Proliferation Assay) according to manufacturer instructions. […] Results were normalized to the respective negative controls of each experiment.

[2] = system: UNC-7 HNSCC cells; test: LC-MS/MS sphingolipid profile, UNC-7; type: cell-based, human; settings: 25 μM Erlotinib, 0, 3, 6 hours
Protocol: (§1) To determine Erlotinib's effect on the sphingolipid profile in HNSCC, 500,000 cells of two different cell lines (UNC-7 & UNC-10) were plated and grown in cell culture. When these cells reached about 70% confluence, they were treated with 25 μM Erlotinib. After addition of the Erlotinib, cells were collected immediately, three hours later, or six hours later. Collected cells were lysed using 0.1× PBS and protein quantification was determined using a Pierce BCA Protein Assay (Thermo Fisher Scientific) according to the manufacturer's instructions. Cell lysates containing 250 μg of protein were then used for lipid extractions. […] The sphingolipids were then analyzed using LC-MS/MS.

[3] = system: UNC-10 HNSCC cells; test: MTS cell viability assay, UNC-10 HNSCC cells; type: cell-based, human
Protocol: (§2) To evaluate cell viability in HNSCC cell lines after drug exposure, 5,000 cells were plated in 96-well plates. After 16-30 hours, cells were exposed to each drug alone or in combination, and viability was measured every 24 hours for a total of 48 hours. Viability was assayed using a […] 96® brand AQueous Non-Radioactive Cell Proliferation MTS Assay (Promega Corporation) according to manufacturer's instructions. A minimum of three biologically independent experiments were performed. Results were normalized to the respective negative controls of each experiment.
(§3) To evaluate cell viability of HNSCC cell lines after exposure to various amounts of Erlotinib, 5,000 UNC-10 or SCC-25 cells were plated in 96-well plates. After 16-30 hours, cells were exposed to each Erlotinib at 0 μM, 0.5 μM, 1 μM, 5 μM, 10 μM, and 25 μM, and viability was measured at 24 and 48 hours. Viability was assayed using MTS assay (Promega […] 96® AQueous Non-Radioactive Cell Proliferation Assay) according to manufacturer instructions. A minimum of three biologically independent experiments were performed. Results were normalized to the respective negative controls of each experiment.
(§4) To evaluate cell viability in HNSCC cell lines after exposure to CNLs, similar experiments were performed with five different concentrations of CNLs alone: 0 μM, 2.5 μM, 5 μM, 10 μM, 25 μM. 5,000 UNC-10 or SCC-25 cells were plated in 96-well plates. After 16-30 hours, cells were exposed to each drug alone or in combination, and viability was measured every 24 hours for a total of 48 hours. Viability was assayed using MTS assay (Promega […] 96® AQueous Non-Radioactive Cell Proliferation Assay) according to manufacturer instructions. A minimum of three biologically independent experiments were performed.
(§5) To evaluate cell viability in HNSCC cell lines after exposure to CNLs plus an EGFR inhibitor, 5,000 cells were plated in 96-well plates. After 16-30 hours, cells were exposed to six different concentrations of Erlotinib (0 μM, 0.5 μM, 1 μM, 5 μM, 10 μM, & 25 μM) combined with five different concentrations of CNLs (0 μM, 2.5 μM, 5 μM, 10 μM, & 25 μM), and viability was measured at 24 hours and 48 hours. Viability was assayed using MTS assay (Promega […] 96® AQueous Non-Radioactive Cell Proliferation Assay) according to manufacturer instructions. A minimum of three biologically independent experiments were performed. Results were normalized to the respective negative controls of each experiment.

[4] = system: UNC-10 HNSCC cells; test: LC-MS/MS sphingolipid profile, UNC-10; type: cell-based, human; settings: 25 μM Erlotinib, 0, 3, 6 hours
Protocol: as §1

[5] = system: SCC-25 HNSCC cells; test: MTS cell viability assay, SCC-25 HNSCC cells; type: cell-based, human; settings: for viability at 25 µM: Homo sapiens, 48 hours
Protocol: as §2, §3, §4, §5

[6] = system: eight different HNSCC cell lines; test: MTS cell viability assays in eight HNSCC cell lines; type: cell-based, human; settings: any of the cell lines, concentrations and time points
Protocol: Drugs concentrations. […] For synergistic experiments: abiraterone acetate (Selleckchem, Houston, Texas, United States of America) was used at 0.5 μM, 1 μM, 5 μM, 10 μM, 20 μM; enzalutamide (Selleckchem) at 1 μM, 5 μM, 10 μM, 20 μM, 30 μM; and CNL at 5 μM, 10 μM, 20 μM, and 30 μM. During synergy studies, each concentration of either abiraterone acetate or enzalutamide was combined with either Ghost (negative) control (nanoliposomes without the C6 ceramide—active agent) or each concentration of CNL. Respective negative controls for abiraterone acetate and enzalutamide were also used. Synergy experiments were performed in LNCaP and C4-2 cells. For synergistic studies using the HNSCC cell lines, all eight cell lines were pre-treated for one hour with either Erlotinib (Selleckchem) or Gefitinib (Sigma-Aldrich Corporation, St. Louis, Missouri, United States of America) before adding CNL. Six different concentrations of Erlotinib and Gefitinib (0 μM, 0.5 μM, 1 μM, 5 μM, 10 μM, and 25 μM) were tested against five different CNL concentrations (0 μM, 2.5 μM, 5 μM, 10 μM, and 25 μM). […]
To evaluate cell viability in HNSCC cell lines after drug exposure, 5,000 cells were plated in 96-well plates. After 16-30 hours, cells were exposed to each drug alone or in combination, and viability was measured every 24 hours for a total of 48 hours. […]

[7] = system: UNC-10 cells; test: Flow cytometry viability dye assay, UNC-10 cells; type: cell-based; settings: Homo sapiens, 48 hours, 25 μM Erlotinib
Protocol: (§6) To evaluate cell death in HNSCC cell lines exposed to CNL and/or Erlotinib or Gefitinib, a flow cytometry assay was performed. Cells were plated in 24-well plates for 16-30 hours before being pre-treated for one hour with Erlotinib or Gefitinib (0 μM, 10 μM, 25 μM) and then with CNL (0 μM, 2.5 μM, 5 μM). After 24 or 48 hours, cells were stained with a Fixable Viability Dye EFLUOR™ 780 brand a viability dye (ThermoFischer Scientific Inc.)
(§7) according to the manufacturer's recommendations. The use of this dye allowed us to differentiate between two cell populations: dead or live cells. Flow cytometry controls (alive/stained, alive/non-stained, & dead/stained) were used to allow for a more rigorous discrimination between populations. Results were normalized to the respective negative controls of each experiment. Data analysis was performed using FlowJo Software.
(§8) In order to evaluate cell death in HNSCC cell lines exposed to CNL and/or Erlotinib or Gefitinib, flow cytometry assays were also performed. Cells were plated in 24-well plates for 16-30 hours before being pre-treated for one hour with Erlotinib or Gefitinib (0 μM, 10 μM, 25 μM) and then with CNL (0 μM, 2.5 μM, 5 μM). After 24 or 48 hours, cells were stained with a viability dye (Fixable Viability Dye EFLUOR™ 780, ThermoFischer Scientific) according to the manufacturer recommendations. […]

[8] = system: SCC-25 cells; test: Flow cytometry viability dye assay, SCC-25 cells; type: cell-based; settings: Homo sapiens, 48 hours, 25 μM Erlotinib
Protocol: as §6, §7, §8

[9] = system: LNCaP cells; test: LC-MS/MS lipid levels in LNCaP cells; type: cell-based, human; settings: 10 μM abiraterone acetate alone
Protocol: Cells were plated in 6-well plates for 48 hours before being exposed to CNL 10 μM and/or Abiraterone Acetate 10 μM, as well as respective controls (Ghost liposome and Ethanol respectively). Cells were collected after 1 hour, 4 hours, 12 hours, 24 hours, and 48 hours of exposure. Cells were lysed with 0.1× PBS and protein quantification was determined using a DC™ brand Protein Assay (Bio-Rad Laboratories, Inc., Hercules, California, United States of America). The Metabolomics core at University of Virginia performed lipid extraction, LC-MS/MS injections, and data analysis.

**Q.** How did the “reduction of viability as single treatment” value [1] turn out when `CNC(=O)c1ccc(N2C(=S)N(c3ccc(C#N)c(C(F)(F)F)c3)C(=O)C2(C)C)cc1F` [Enzalutamide] was run?
**A.** The value was “not as effective as a single treatment”.

**Q.** For `C#Cc1cccc(Nc2ncnc3cc(OCCOC)c(OCCOC)cc23)c1` [Erlotinib], which sphingolipid levels [2] is on record?
**A.** The sphingolipid levels was “able to alter sphingolipid levels”.

**Q.** What about the “effect on cell viability” value ([3]; Erlotinib alone 0.5-25 μM, 24 or 48 hours) of the same compound?
**A.** Its value is “little effect”.

**Q.** What about the viability at 25 µM ([3]; Homo sapiens, 48 hours, 25 μM Erlotinib) of the same compound?
**A.** The viability at 25 µM was 90%.

**Q.** What about the sphingolipid levels [4] of the same compound?
**A.** The sphingolipid levels was “able to alter sphingolipid levels”.

**Q.** What about the “effect on cell viability” value ([5]; Erlotinib alone, higher concentrations, 24 or 48 hours) of the same compound?
**A.** Its value is “not statistically significant”.

**Q.** What about the viability at 25 µM ([5]; 25 μM Erlotinib) of the same compound?
**A.** The viability at 25 µM was 89%.

**Q.** What about the “effect of Erlotinib alone on cell viability” value [6] of the same compound?
**A.** Its value is “failing to produce any meaningful effects”.

**Q.** And the viability at 25 µM [7]?
**A.** The viability at 25 µM was 91%.

**Q.** What about the viability at 25 µM [8] of the same compound?
**A.** Its viability at 25 µM is 89%.

**Q.** `CC(=O)O[C@H]1CC[C@@]2(C)C(=CC[C@@H]3[C@@H]2CC[C@]2(C)C(c4cccnc4)=CC[C@@H]32)C1` [abiraterone acetate] was tested. Which “reduction of viability as single treatment” value [1] did it give?
**A.** The value was “effective in reducing the viabilities of PCa cells”.

**Q.** What about the C6 ceramide levels [9] of the same compound?
**A.** The C6 ceramide levels was “not changed”.

**Q.** What about the total ceramide levels [9] of the same compound?
**A.** Its total ceramide levels is “not changed”.

**Q.** For `COc1cc2ncnc(Nc3ccc(F)c(Cl)c3)c2cc1OCCCN1CCOCC1` [Gefitinib], which effect on viability ([3]; Gefitinib at 5 μM or less, 24 hours or 48 hours) is on record?
**A.** Its effect on viability is “little effect”.

**Q.** What about the effect on viability ([3]; Gefitinib higher concentrations (10, 25 μM), particularly at 24 hours) of the same compound?
**A.** The effect on viability was “reduced viability”.

**Q.** And the viability at 5 µM ([3]; Homo sapiens, 48 hours, 5 μM Gefitinib)?
**A.** The viability at 5 µM was 97%.

**Q.** And the “effect on viability compared with UNC-10” value ([5]; Gefitinib alone, 24 hours and 48 hours)?
**A.** Its value is “less striking”.

**Q.** What about the viability at 25 µM ([5]; 25 μM Gefitinib) of the same compound?
**A.** Its viability at 25 µM is 81%.
